{
  "source": "patent US11878059B2",
  "about": "“Sonodynamic therapy” (UNIVERSITY OF ULSTER, priority 2017, dated 2024)",
  "key": {"[1]": {"system": "MCF-7 cells", "assay": "Colony forming assay in MCF-7 cells", "format": "cell-based, human", "conditions": "+US (1 MHz, 30 s, 3 Wcm^−2); PTX 1 nM, Dox 10 nM, RB 10 nM, 3 hours", "protocol": "FIG. 16 is a plot showing % survival fraction from a MCF-7 colony forming assay. Cells following treatment with PTX/Dox/RB alone (Drug combo) or following treatment with ultrasound (Drug Combo+US). After treatment cells were incubated for 8 days followed by fixation and staining. Crystal violet staining was quantified via Image J.\nIn this study, the concentration of each individual drug used was intentionally sub-lethal, so that any benefit obtained by the combination treatment could easily be identified. In addition, as the action of ultrasound can influence the cellular uptake of drugs as a result of sonoporation, cells treated with Dox or PTX were also exposed to ultrasound, to control for any potential ultrasound mediated effects on cell viability as a result of sonoporation. Following treatment, cell viability was determined using a colony forming assay.\nMCF-7 cells were seeded (5×10^3) in a 96 well plate, 24 hours later cells were treated with free drug as a single treatment of PTX (1 nM), Dox (10 nM), RB (10 nM) or combination treatment for 3 hours followed by media replacement. Selected wells were treated with ultrasound delivered using a Sonidel SP100 sonoporator (1 MHz, 30 seconds, 3 Wcm^−2, duty cycle=50%, and PRF=100 Hz). The following day cells were pooled from 2 wells and seeded in a 6 well plate. Plates were placed in an incubator for 7 days. Media was removed from wells, fixation/staining solution was added at room temperature for 20 minutes. Fixative/staining solution contained: 0.5 g crystal violet (0.05%), 27 ml 37% formaldehyde, 100 ml 10×PBS (X1), 10 mL methanol (1%) and 863 mL of distilled water. Solution was removed and washed under running water. Pictures were taking using a high-resolution camera and colony formation was analysed via Image J."}, "[2]": {"system": "BxPc-3", "assay": "MTT cytotoxicity of Biotin-Gem and Biotin-Gem-RB in BxPC-3 cells", "format": "cell-based, human", "conditions": "48 h incubation", "protocol": "To ensure the antimetabolite efficacy of Biotin-Gem and Biotin-Gem-RB were unaffected by chemical modification, the cytotoxicity of the conjugates was determined in the human pancreatic adenocarcinoma cell line BxPc-3. […] These cells were seeded into 96 well plates at a density of 5000 cells per well. The plates were then incubated for 24 hours followed by the addition of 100 uL of media spiked with either Gem, Biotin-Gem or Biotin-Gem-RB. The concentrations used for Biotin-Gem were […] while for Biotin-Gem-RB, concentrations of 0.01 μM, 0.05 μM, 0.1 μM, 0.5 μM, 1 μM, 5 μM and 10 μM were investigated. Corresponding concentrations of Gem were used in each case. The cells were then further incubated for 48 hours before cell viability was determined using an MTT assay."}, "[3]": {"assay": "Body weight of Mia-PaCa-2 tumour bearing mice (FIG. 11b)", "format": "in vivo, SCID mice", "conditions": "clinical dose 120 mg/Kg I.P., day 6", "protocol": "The microbubble suspension (6.86×10^7±1.99×10^6 MB) was delivered as a 100 uL I.V injection (PTX—2.44±0.37 mg/Kg, GEM—0.5±0.04 mg/Kg, RB—1.85±0.14 mg/Kg). Gemcitabine hydrochloride was dissolved in sterile PBS and administered as a 100 uL I.P injection (120 mg/Kg). Ultrasound treatment was delivered for 3.5 minutes at frequency of 1 MHz, an ultrasound power density of 3.5 W/cm^2 and a duty cycle of 30% immediately after injection and 30 minutes following. Error bars represent±the standard error.\nMia-Paca-2 cells were maintained in DMEM medium and BxPc-3 cells were maintained in RPMI 1640 both supplemented with 100 U/mL penicillin, […] streptomycin, and 10% fetal bovine serum (FBS) in a humidified 5% CO2 atmosphere at 37° C. Cells (5×10^6) were re-suspended in Matrigel® and implanted subcutaneously into the rear dorsum of SCID (C.B-17/IcrHan®Hsd-Prkdcscid) mice. Tumours reached treatable size within 3 weeks. Tumour measurements were taken daily using callipers. Once the tumours had reached an average volume of 150 mm^3 animals were randomly assigned into treatment groups. Animals were anaesthetised by intraperitoneal injection of hypnorm:hypnovel:ice cold sterile water for injection (1:2:1). […] Tumour growth was monitored daily throughout the course of the treatment."}, "[4]": {"system": "Panc-1", "assay": "MTT assay biotin-GEM-RB vs gemcitabine hydrochloride, Panc-1", "format": "cell-based, human", "protocol": "(§1) Human primary pancreatic adenocarcinoma cell lines BxPc-3, Panc-1 and Mia-PaCa-2 were maintained in RPMI 1640 medium which was supplemented with 100 U/mL penicillin, […] streptomycin, and 10% fetal bovine serum (FBS) and Dulbecco's Modified Eagle's Medium (DMEM) containing 1 g/L glucose and supplemented with 100 U/mL penicillin, […] streptomycin, and 10% fetal bovine serum (FBS) respectively in a humidified 5% CO2 atmosphere at 37° C. These cells were seeded into 96 well plates at a density of 5000 cells per well. The plates were then incubated for 24 hours followed by the addition of 100 μL of media spiked with Gem or Biotin-Gem-RB at concentrations ranging from 0.001-1000 μM. The cells were then further incubated for 48 hours before cell viability was determined by an MTT assay."}, "[5]": {"system": "Mia-PaCa-2", "assay": "MTT assay biotin-GEM-RB vs gemcitabine hydrochloride, Mia-PaCa-2", "format": "cell-based, human", "conditions": "Mia-PaCa-2, 0-1000 μM, 48 h", "protocol": "as §1"}, "[6]": {"system": "BxPc-3", "assay": "MTT assay biotin-GEM-RB vs gemcitabine hydrochloride, BxPc-3", "format": "cell-based, human", "conditions": "BxPc-3, 0-1000 μM, 48 h", "protocol": "as §1"}},
  "data": [
    {"smiles": "CC(=O)O[C@H]1C(=O)[C@@]2(C)[C@H]([C@H](OC(=O)c3ccccc3)[C@]3(O)C[C@H](OC(=O)[C@H](O)[C@@H](NC(=O)c4ccccc4)c4ccccc4)C(C)=C1C3(C)C)[C@]1(OC(C)=O)CO[C@@H]1C[C@@H]2O", "note": "[PTX, paclitaxel]", "values": [
      {"measurement": "reduction of colony number compared to untreated cells", "setting": "[1]", "result": 7.3, "unit": "%"}
    ]},
    {"smiles": "O=C1OC2(c3cc(I)c(O)c(I)c3Oc3c2cc(I)c(O)c3I)c2c(Cl)c(Cl)c(Cl)c(Cl)c21", "note": "[RB, Rose Bengal]", "values": [
      {"measurement": "reduction of colony number compared to untreated cells", "setting": "[1]", "result": 18.8, "unit": "%"}
    ]},
    {"smiles": "Nc1ccn([C@@H]2O[C@H](COC(=O)OCCNC(=O)CCCCC3SCC4NC(=O)NC43)[C@@H](O)C2(F)F)c(=O)n1", "note": "(stereo partly drawn) [Biotin-Gem, (2R,3R,5R)-5-(4-amino-2-oxopyrimidin-1(2H)-yl)-4,4-difluoro-3 hydroxytetrahydrofuran-2-yl)methyl (2-(5-(2-oxohexahydro-1H-thieno[3,4-d]imidazol-4-yl)pentanamido)ethyl) carbonate]", "values": [
      {"measurement": "efficacy (cell viability, MTT) compared to Gemcitabine", "setting": "[2]; 0-100 μM", "result": "no statistically significant difference in efficacy"}
    ]},
    {"smiles": "Nc1ccn([C@@H]2O[C@H](CO)[C@@H](O)C2(F)F)c(=O)n1", "note": "[gemcitabine]", "values": [
      {"measurement": "decrease in body weight", "setting": "[3]", "result": 12, "unit": "%"}
    ]},
    {"smiles": "Nc1ccn([C@@H]2O[C@H](COC(=O)CCCCCCC(=O)NCCN(CCNC(=O)CCCCCCC(=O)NCCOC(=O)c3c(Cl)c(Cl)c(Cl)c(Cl)c3-c3c4cc(I)c(=O)c(I)c-4oc4c(I)c(O)c(I)cc34)CCNC(=O)CCCCC3SCC4NC(=O)NC43)[C@@H](O)C2(F)F)c(=O)n1", "note": "(stereo partly drawn) [Biotin-Gem-RB, ((2R,3R, 5R)-5-(4-amino-2-oxopyrimidin-1 (2H)-yl)-4,4-difluoro-3-hydroxytetrahydrofuran-2-yl)methyl 4,11,19-trioxo-15-(2-(5-(2-oxohexahydro-1H-thieno[3,4-d]imidazol-4-yl)pentanamido)ethyl)-1-((2,3,4,5-tetrachloro-6-(6-hydroxy-2,4,5,7-tetraiodo-3-oxo-3H-xanthen-9-yl)benzoyl)oxy)-3,12,15,18-tetraazahexacosan-26-oate]", "values": [
      {"measurement": "efficacy vs gemcitabine HCl (MTT)", "setting": "[4]; Panc-1, 0-1000 μM, 48 h", "result": "no decrease in efficacy"},
      {"measurement": "efficacy vs gemcitabine HCl (MTT)", "setting": "[4]; Panc-1, above 10 μM", "result": "significant increase in efficacy"},
      {"measurement": "efficacy vs gemcitabine HCl (MTT)", "setting": "[5]", "result": "no decrease in efficacy"},
      {"measurement": "efficacy (cell viability, MTT) compared to Gemcitabine", "setting": "[2]; 0.01-10 μM", "result": "no statistically significant difference in efficacy"},
      {"measurement": "efficacy vs gemcitabine HCl (MTT)", "setting": "[6]", "result": "no decrease in efficacy"}
    ]},
    {"smiles": "COc1cccc2c1C(=O)c1c(O)c3c(c(O)c1C2=O)C[C@@](O)(C(=O)CO)C[C@@H]3O[C@H]1C[C@H](N)[C@H](O)[C@H](C)O1", "note": "[Dox, doxorubicin]", "values": [
      {"measurement": "reduction of colony number compared to untreated cells", "setting": "[1]", "result": 29.3, "unit": "%"}
    ]}
  ]
}
